# pEC50: −log10 of the molar value.
# Biological target: human α7 nAChR (Homo sapiens (Human), UniProt P36544)
# Assay: Automated patch-clamp electrophysiology functional assay (Assay A)
# Format: cell-based
# Conditions: IonFlux HT whole-cell population patch, HEK cells expressing human α7/RIC-3, 40 μM acetylcholine
# Protocol: The α7 nAChR positive allosteric modulator (PAM) activity of the present compounds may be tested using assays known in the art. The α7 nAChR PAMs described herein have activities in an automated patch-clamp electrophysiology functional assay as described in the examples. The assay was performed using the IonFlux HT in a whole-cell, population patch configuration. See Golden et al. Assay Drug Dev. Technol. (2011) 9:608-619. The compounds were assessed for their ability to modulate the function of the human α7 nAChR stably expressed in a HEK cell line both in the presence, and in the absence of the natural α7 agonist acetylcholine. By performing a series of such measurements at different concentrations, the effective concentration of the α7 nAChR PAMs (EC50) was determined. See Spencer et al. Assay Drug Dev. Technol. (2012) 10:313-324.
# Direct activation of α7 (agonism), and potentiation of acetylcholine-evoked α7 currents was determined as follows:
# Automated Patch-Clamp Electrophysiology Functional Assay (Assay A)
# Automated patch-clamp electrophysiology was performed using the IonFluxHT (Fluxion Biosciences Inc., San Francisco, CA) in the whole-cell, population patch configuration. Test compounds were assessed for their ability to modulate the function of the α7 nicotinic acetylcholine receptor both in the presence, and in the absence of the natural α7 agonist acetylcholine. A HEK cell line stably expressing both human RIC-3 and human α7 (PrecisION hnAChR α7/RIC-3, Eurofins Pharma, St. Charles, MO) was cultured in 175 cm^2 triple-layer tissue culture flasks to no more than 90% confluency in DMEM/F-12 growth media supplemented with 10% heat-inactivated fetal bovine serum, 1% non-essential amino acids, 0.625 μg/mL Puromycin, and 400 μg/mL Geneticin. Immediately prior to assay, cells were detached by first aspirating growth media, rinsing with Dulbecco's phosphate buffered saline, and then adding 10 mL of Accutase (Innovative Cell Technologies, San Diego, CA) to the flask and then incubating at 37° C. for 5 minutes. Detached cells were then recovered by the addition of 40 mL of CHO-serum-free media supplemented with 25 mM HEPES, and rocked gently in a 50 mL conical tube for 20 minutes prior to patch-clamp assay. After recovery, cells were pelleted by centrifugation at 1,000 RPM for 1 minute in a compact bench top centrifuge; recovery media was aspirated and cells were resuspended in external recording solution (150 mM NaCl, 5 mM KCl, 2 mM CaCl2), 1 mM MgCl2, 10 mM HEPES, 12 mM dextrose) to a density of 5.0×10^6 cells/mL. The cell suspension was added to the cell inlet wells on an IonFlux HT population patch plate which had previously been rinsed and primed with deionized H2O. Test compounds were serially diluted in DMSO and then resuspended to the final test concentration in external recording solution, with, or without 40 μM acetylcholine added to the external recording solution; test compounds were then transferred to the IonFlux HT population patch plate. Internal recording solution (110 mM TrisPO4, 28 mM TrisBase, 0.1 mM CaCl2), 2 mM MgCl2, 11 mM EGTA, 4 mM MgATP) was added to the internal recording solution inlet wells on the IonFlux HT patch plate previously loaded with cells and test compounds, and the plate loaded into the IonFlux HT instrument. A protocol was executed on the IonFlux HT to trap the cells, break into the cells, and establish the whole-cell recording configuration; cells were voltage-clamped at a holding potential of −60 mV for the duration of the experiment, all experiments were conducted at room temperature, and the IonFlux HT injection pressure was 8 psi for solution applications. Upon establishing the whole-cell configuration, external recording solution was perfused into the recording chambers for 120 seconds and then 40 μM acetylcholine was applied for 1 second and immediately washed off with external recording solution for 60 seconds. […]
# Chain of human α7 nAChR (P36544 23-502): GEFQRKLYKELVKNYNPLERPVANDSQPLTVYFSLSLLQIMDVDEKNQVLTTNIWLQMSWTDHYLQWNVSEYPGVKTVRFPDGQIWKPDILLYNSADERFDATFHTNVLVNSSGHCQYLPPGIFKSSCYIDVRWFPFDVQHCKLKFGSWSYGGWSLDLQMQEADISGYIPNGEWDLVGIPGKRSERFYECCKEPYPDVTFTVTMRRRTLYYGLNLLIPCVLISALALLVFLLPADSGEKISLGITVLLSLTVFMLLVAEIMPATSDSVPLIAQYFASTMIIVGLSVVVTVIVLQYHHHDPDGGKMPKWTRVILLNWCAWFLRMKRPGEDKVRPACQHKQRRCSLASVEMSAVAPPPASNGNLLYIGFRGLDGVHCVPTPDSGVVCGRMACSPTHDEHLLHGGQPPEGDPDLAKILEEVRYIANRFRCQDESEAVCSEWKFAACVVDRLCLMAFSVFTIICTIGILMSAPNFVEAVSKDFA
Structure (SMILES),pEC50 (electrophysiology EC50 values),pEC50 (potency class)
"O=C(N[C@@H]1CCc2c(O)cccc21)C1C2Oc3ccc(F)cc3C21 (mixture of isomers) [Example C10, exo-5-fluoro-N-(4-hydroxy-2,3-dihydro-1H-inden-1-yl)-1a,6b-dihydro-1H-cyclopropa[b][1]benzofuran-1-carboxamide]",5.80,5.30 to 6.30
"COC(=O)[C@@H](NC(=O)C1C2Oc3ccc(F)cc3C21)c1cccc(F)c1 (mixture of isomers) [Example C13, methyl 2-(3-fluorophenyl)-2-[(exo-5-fluoro-1a,6b-dihydro-1H-cyclopropa[b][1]benzofuran-1-carbonyl)amino]acetate]",5.46,5.30 to 6.30
"CCOc1ccc([C@H](COC)NC(=O)C2C3Cc4ccccc4C32)cc1 (single isomer, unassigned) [Example 1]",6.12,5.30 to 6.30
"CCOc1ccc([C@H](COC)NC(=O)C2C3Cc4ccccc4C32)cc1 (single isomer, unassigned) [Example 2]",7.14,≥ 7.00
"CCOc1ccc([C@H](COC)NC(=O)C2C3Oc4ccc(-c5cn(Cc6ccccc6)nn5)cc4C32)cc1 (single isomer, unassigned) [Example 6]",5.96,5.30 to 6.30
"COC(CNC(=O)[C@@H]1[C@H]2COc3ccc(F)cc3[C@H]21)C1CCCCC1 (single isomer, unassigned) [Example A4, exo-N-(2-cyclohexyl-2-methoxyethyl)-6-fluoro-1,1a,2,7b-tetrahydrocyclopropa[c][1]benzopyran-1-carboxamide]",–,5.30 to 6.30
"O=C(N[C@@H](CO)C1CCCCC1)C1C2COc3ccc(F)cc3C21 (stereo partly drawn) [Example 3, exo-N-[(1R)-1-Cyclohexyl-2-hydroxyethyl]-6-fluoro-1,1a,2,7b-tetrahydrocyclopropa[c][1]benzopyran-1-carboxamide]",5.77,5.30 to 6.30
"COc1cc([C@@H](NC(=O)C2C3COc4ccc(F)cc4C32)C(F)(F)F)ccn1 (stereo partly drawn) [Example 4, exo-6-Fluoro-N-[(1R)-2,2,2-trifluoro-1-(2-methoxypyridin-4-yl)ethyl]-1,1a,2,7b-tetrahydrocyclopropa[c][1]benzopyran-1-carboxamide]",5.96,5.30 to 6.30
"CCOc1ccc([C@H](COC)NC(=O)C2C3Oc4ccc(-c5nn[nH]n5)cc4C32)cc1 (stereo partly drawn) [Example 5, exo-N-[(1R)-1-(4-Ethoxyphenyl)-2-methoxyethyl]-5-(2H-tetrazol-5-yl)-1a,6b-dihydro-1H-cyclopropa[b][1]benzofuran-1-carboxamide]",5.82,5.30 to 6.30
"O=C(NCc1nc(-c2ccccc2)no1)C1C2Oc3ccc(F)cc3C21 (stereo not drawn) [Example 7, exo-5-Fluoro-N-[(3-phenyl-1,2,4-oxadiazol-5-yl)methyl]-1a,6b-dihydro-1H-cyclopropa[b][1]benzofuran-1-carboxamide]",7.30,≥ 7.00
"O=C(NC1(c2ccc(F)cc2)COC1)C1C2COc3ccccc3C21 (stereo not drawn) [Example A1, exo-N-[3-(4-fluorophenyl)oxetan-3-yl]-1,1a,2,7b-tetrahydrocyclopropa[c][1]benzopyran-1-carboxamide]",5.82,5.30 to 6.30
"O=C(NC1(c2ccc(F)cc2)COC1)C1C2COc3ccc(F)cc3C21 (stereo not drawn) [Example A2, exo-6-fluoro-N-[3-(4-fluorophenyl)oxetan-3-yl]-1,1a,2,7b-tetrahydrocyclopropa[c][1]benzopyran-1-carboxamide]",5.92,5.30 to 6.30
"CCOc1ccc([C@H](CO)NC(=O)C2C3COc4ccc(F)cc4C32)cn1 (stereo partly drawn) [Example A3, exo-N-[(1R)-1-(6-ethoxypyridin-3-yl)-2-hydroxyethyl]-6-fluoro-1,1a,2,7b-tetrahydrocyclopropa[c][1]benzopyran-1-carboxamide]",5.66,5.30 to 6.30
"O=C(NC1(c2ccc(F)cc2)CC(O)C1)C1C2COc3ccccc3C21 (stereo not drawn) [Example A5, exo-N-[1-(4-fluorophenyl)-3-hydroxycyclobutyl]-1,1a,2,7b-tetrahydrocyclopropa[c][1]benzopyran-1-carboxamide]",5.34,5.30 to 6.30
"O=C(N[C@@H](CO)C1CCCCC1)C1C2COc3ccccc3C21 (stereo partly drawn) [Example A6, exo-N-[(1R)-1-cyclohexyl-2-hydroxyethyl]-1,1a,2,7b-tetrahydrocyclopropa[c][1]benzopyran-1-carboxamide]",5.96,5.30 to 6.30
"O=C(N[C@@H](C(F)F)C1CCCCC1)C1C2COc3ccc(F)cc3C21 (stereo partly drawn) [Example A7, exo-N-[(1R)-1-cyclohexyl-2,2-difluoroethyl]-6-fluoro-1,1a2,7b-tetrahydrocyclopropa[c][1]benzopyran-1-carboxamide]",6.10,5.30 to 6.30
"O=C(NC1(c2ccccc2)CCC1)C1C2COc3ccc(F)cc3C21 (stereo not drawn) [Example A8, exo-6-fluoro-N-(1-phenylcyclobutyl)-1,1a,2,7b-tetrahydrocyclopropa[c][1]benzopyran-1-carboxamide]",6.00,5.30 to 6.30
"O=C(NC1(c2ccc(F)cc2)CC1)C1C2COc3ccc(F)cc3C21 (stereo not drawn) [Example A9, exo-6-fluoro-N-[1-(4-fluorophenyl)cyclopropyl]-1,1a,2,7b-tetrahydrocyclopropa[c][1]benzopyran-1-carboxamide]",5.96,5.30 to 6.30
"COc1cc(C2(NC(=O)C3C4COc5ccccc5C43)CC2)ccn1 (stereo not drawn) [Example A10, exo-N-[1-(2-methoxypyridin-4-yl)cyclopropyl]-1,1a,2,7b-tetrahydrocyclopropa[c][1]benzopyran-1-carboxamide]",–,5.30 to 6.30
"CCOc1ccc(C2(NC(=O)C3C4COc5ccccc5C43)CCC2)cn1 (stereo not drawn) [Example A11, exo-N-[1-(6-ethoxypyridin-3-yl)cyclobutyl]-1,1a,2,7b-tetrahydrocyclopropa[c][1]benzopyran-1-carboxamide]",6.21,5.30 to 6.30
"COc1cc(C2(NC(=O)C3C4COc5ccccc5C43)CCC2)ccn1 (stereo not drawn) [Example A12, exo-N-[1-(2-methoxypyridin-4-yl)cyclobutyl]-1,1a,2,7b-tetrahydrocyclopropa[c][1]benzopyran-1-carboxamide]",5.82,5.30 to 6.30
"CCOc1ccc([C@@H](NC(=O)C2C3COc4ccc(F)cc4C32)C(F)(F)F)cn1 (stereo partly drawn) [Example A13, exo-N-[(1R)-1-(6-ethoxypyridin-3-yl)-2,2,2-trifluoroethyl]-6-fluoro-1,1a,2,7b-tetrahydrocyclopropa[c][1]benzopyran-1-carboxamide]",5.96,5.30 to 6.30
"CCOc1ccc([C@@H](NC(=O)C2C3COc4ccc(F)cc4C32)C(F)F)cn1 (stereo partly drawn) [Example A14, exo-N-[(1R)-1-(6-ethoxypyridin-3-yl)-2,2-difluoroethyl]-6-fluoro-1,1a,2,7b-tetrahydrocyclopropa[c][1]benzopyran-1-carboxamide]",5.96,5.30 to 6.30
"CCOc1ccc([C@H](CF)NC(=O)C2C3COc4ccc(F)cc4C32)cn1 (stereo partly drawn) [Example A15, exo-N-[(1R)-1-(6-ethoxypyridin-3-yl)-2-fluoroethyl]-6-fluoro-1,1a,2,7b-tetrahydrocyclopropa[c][1]benzopyran-1-carboxamide]",5.82,5.30 to 6.30
"COc1cc([C@H](CF)NC(=O)C2C3COc4ccc(F)cc4C32)ccn1 (stereo partly drawn) [Example A16, exo-6-fluoro-N-[(1R)-2-fluoro-1-(2-methoxypyridin-4-yl)ethyl]-1,1a,2,7b-tetrahydrocyclopropa[c][1]benzopyran-1-carboxamide]",–,5.30 to 6.30
